The results in this text go back to US10829478B2, “5-[3-[piperazin-1-yl]-3-oxo-propyl]-imidazolidine-2,4-dione derivatives as ADAMTS 4 and 5 inhibitors for treating e.g. osteoarthritis” (Galapagos NV, priority 2016, dated 2020).

The target of assay [1] is T1, human ADAMTS4 (Homo sapiens (Human), UniProt O75173). Kind of assay: hADAMTS-4 TBIS-1 cleavage assay, Protocol 2. Format: biochemical.
For a further assay, the target named is human ADAMTS6 (Homo sapiens (Human), UniProt Q9UKP5). Nature of the assay: hADAMTS-6 fluorescent based protease assay (520 MMP FRET substrate XII). It counts as biochemical. Particulars: 37° C. for 2 h; read-out: hADAMTS-6 potency IC50. Summed up:
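ADAMTS6 (0.73 nM final) in 25 mM Tris pH 8.0, 0.05% CHAPS, 2.5 mM CaCl2 with compound dilution series (top 20 μM, 1/5 steps). Reaction started with 520 MMP FRET Substrate XII, incubated 2 h at 37 °C. Substrate cleavage read by fluorescence ex485/em530; IC50 determined.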

Assay [2] deals with T2, human MMP13 (Homo sapiens (Human), UniProt P45452). Kind of assay: hMMP13 assay, Protocol 1 (390 MMP FRET Substrate I, Chemicon enzyme). Format: biochemical. Particulars: Protocol 1, human MMP13 (Chemicon), read-out: hMMP-13 potency IC50. The method, then: (§1) Human MMP13 is preactivated by incubated the enzyme in the same buffer complemented with 1 mM freshly prepared p-Aminophenylmercuric acetate (AMPA) for 1 h at 37° C.

In assay [3] the target is T3, human ADAMTS-5 (Homo sapiens (Human), UniProt Q9UNA0). Nature of the assay: hADAMTS-5 TBIS-1 cleavage assay, Protocol 3. Particulars: 90 min at 37° C., read-out: hADAMTS-5 potency IC50. It counts as biochemical.
Experimental: (§2) The reaction is initiated by adding to the assay plate TBIS-1 (10 μL, 4.5 μM, Anaspec) in the same buffer.
Finally, the fluorescence is read on the Envision (Perkin Elmer) after an incubation of 90 min at 37° C. (Excitation 485 nm, emission 530).
Another assay addresses human TACE (Homo sapiens (Human), UniProt P78536). Nature of the assay: biochemical.
The target in assay [4] is T3, human ADAMTS-5. Nature of the assay: hADAMTS-5 TBIS-1 cleavage assay, Protocol 2. It counts as biochemical. Particulars: 45 min at 37° C., read-out: ADAMTS5 potency IC50.
Another assay deals with rnADAMTS-5 (1-564-6H) (Rattus norvegicus (Rat), UniProt Q6TY19). Kind of assay: Rat ADAMTS-5 TBIS-1 cleavage assay. It counts as biochemical. Particulars: 120 min at 37° C.; read-out: Rat ADAMTS-5 potency IC50.
Assay [5] concerns the target T2, human MMP13. Kind of assay: hMMP13 assay, Protocol 2 (390 MMP FRET Substrate I, Enzo enzyme). Format: biochemical. The note with it: Protocol 2, human MMP13 (Enzo Life Sciences), read-out: hMMP-13 potency IC50. The protocol:
as §1

A further assay addresses human MMP14 (Homo sapiens (Human), UniProt P50281). Nature of the assay: hMMP14 assay (390 MMP FRET Substrate I). It counts as biochemical. The note with it: human MMP14 (Biomol), read-out: hMMP-14 potency IC50.
The target in assay [6] is T1, human ADAMTS4. Nature of the assay: hADAMTS-4 TBIS-1 cleavage assay, Protocol 1. Format: biochemical. Particulars: 60 min at room temperature, read-out: ADAMTS4 potency IC50.
Experimental: as §2
Finally, the fluorescence is read on the Envision (Perkin Elmer) after an incubation of 60 min at room temperature (Excitation 485 nm, emission 535).
Where [7] appears, read: Protocol 2, 180 min at 37° C., read-out: ADAMTS4 potency IC50.

For orientation: IC50 means the point on the concentration scale where inhibition reaches its midpoint.

A value given as a limit tells only on which side of the number the result lay.

Chain of human ADAMTS6 (Q9UKP5 other isoform, or with tags, fused parts or gaps): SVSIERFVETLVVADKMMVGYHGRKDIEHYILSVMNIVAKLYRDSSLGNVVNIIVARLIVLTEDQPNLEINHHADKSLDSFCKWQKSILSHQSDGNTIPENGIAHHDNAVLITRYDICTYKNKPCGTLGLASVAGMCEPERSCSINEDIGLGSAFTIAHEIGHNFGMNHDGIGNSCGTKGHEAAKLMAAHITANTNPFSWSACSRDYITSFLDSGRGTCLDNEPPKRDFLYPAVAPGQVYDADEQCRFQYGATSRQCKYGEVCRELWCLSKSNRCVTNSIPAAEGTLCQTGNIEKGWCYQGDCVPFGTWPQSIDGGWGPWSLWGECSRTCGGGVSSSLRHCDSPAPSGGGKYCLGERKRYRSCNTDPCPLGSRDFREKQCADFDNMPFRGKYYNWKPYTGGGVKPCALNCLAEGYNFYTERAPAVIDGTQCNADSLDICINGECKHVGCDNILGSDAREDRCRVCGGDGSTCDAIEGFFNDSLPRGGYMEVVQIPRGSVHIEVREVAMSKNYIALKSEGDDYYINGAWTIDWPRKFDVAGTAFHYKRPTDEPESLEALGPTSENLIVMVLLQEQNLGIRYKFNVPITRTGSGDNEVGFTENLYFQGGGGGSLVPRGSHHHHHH
T1 sequence (O75173 213-837): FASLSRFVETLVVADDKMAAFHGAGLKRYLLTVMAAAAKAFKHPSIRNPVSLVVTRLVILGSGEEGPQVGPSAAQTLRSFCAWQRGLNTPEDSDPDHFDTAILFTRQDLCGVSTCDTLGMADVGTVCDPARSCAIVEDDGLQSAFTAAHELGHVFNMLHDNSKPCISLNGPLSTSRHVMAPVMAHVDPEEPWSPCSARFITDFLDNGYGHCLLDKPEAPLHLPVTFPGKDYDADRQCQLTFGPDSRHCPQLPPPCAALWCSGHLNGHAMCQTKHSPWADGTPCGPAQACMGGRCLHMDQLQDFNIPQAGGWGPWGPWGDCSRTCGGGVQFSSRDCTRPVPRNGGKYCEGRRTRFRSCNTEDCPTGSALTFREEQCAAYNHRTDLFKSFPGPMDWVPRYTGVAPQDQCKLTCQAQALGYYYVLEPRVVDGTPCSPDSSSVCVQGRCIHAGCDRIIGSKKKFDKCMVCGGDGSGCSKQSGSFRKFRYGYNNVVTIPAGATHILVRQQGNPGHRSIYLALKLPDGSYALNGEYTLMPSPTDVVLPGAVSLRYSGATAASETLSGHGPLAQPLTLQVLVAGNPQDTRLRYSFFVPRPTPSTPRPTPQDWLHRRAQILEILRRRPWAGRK
Chain of rnADAMTS-5 (1-564-6H) (Q6TY19 entry or part of it): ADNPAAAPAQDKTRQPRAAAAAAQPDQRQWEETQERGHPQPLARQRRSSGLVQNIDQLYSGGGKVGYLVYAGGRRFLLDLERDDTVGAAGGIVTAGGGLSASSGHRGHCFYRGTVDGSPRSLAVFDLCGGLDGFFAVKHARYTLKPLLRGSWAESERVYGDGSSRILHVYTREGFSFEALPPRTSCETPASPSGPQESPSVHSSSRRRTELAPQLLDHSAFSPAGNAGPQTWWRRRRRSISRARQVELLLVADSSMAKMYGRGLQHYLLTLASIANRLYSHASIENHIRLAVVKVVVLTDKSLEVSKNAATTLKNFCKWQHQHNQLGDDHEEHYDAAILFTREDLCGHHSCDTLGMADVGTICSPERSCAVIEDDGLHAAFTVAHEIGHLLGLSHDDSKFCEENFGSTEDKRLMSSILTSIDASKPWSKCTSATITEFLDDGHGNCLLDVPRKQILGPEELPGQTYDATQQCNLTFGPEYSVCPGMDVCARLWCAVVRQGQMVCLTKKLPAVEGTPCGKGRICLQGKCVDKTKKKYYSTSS
T3 sequence (Q9UNA0 262-930): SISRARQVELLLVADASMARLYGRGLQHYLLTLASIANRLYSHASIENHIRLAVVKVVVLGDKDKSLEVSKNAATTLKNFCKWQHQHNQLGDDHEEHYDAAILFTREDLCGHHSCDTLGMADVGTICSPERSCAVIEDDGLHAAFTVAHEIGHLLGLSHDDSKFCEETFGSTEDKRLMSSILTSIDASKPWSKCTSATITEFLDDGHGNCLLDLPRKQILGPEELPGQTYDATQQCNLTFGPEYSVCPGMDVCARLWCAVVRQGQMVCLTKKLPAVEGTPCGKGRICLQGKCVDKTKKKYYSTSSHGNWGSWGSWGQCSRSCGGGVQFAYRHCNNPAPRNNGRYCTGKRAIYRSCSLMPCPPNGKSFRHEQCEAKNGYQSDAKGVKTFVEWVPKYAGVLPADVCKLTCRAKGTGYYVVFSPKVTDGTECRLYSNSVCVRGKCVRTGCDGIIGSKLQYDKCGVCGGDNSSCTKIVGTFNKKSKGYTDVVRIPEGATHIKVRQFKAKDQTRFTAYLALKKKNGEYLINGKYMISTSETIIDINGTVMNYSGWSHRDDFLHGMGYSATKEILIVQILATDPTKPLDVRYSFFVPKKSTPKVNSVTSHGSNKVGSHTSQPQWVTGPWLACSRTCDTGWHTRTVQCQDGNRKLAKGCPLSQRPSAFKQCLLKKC
Chain of human TACE (P78536 215-671): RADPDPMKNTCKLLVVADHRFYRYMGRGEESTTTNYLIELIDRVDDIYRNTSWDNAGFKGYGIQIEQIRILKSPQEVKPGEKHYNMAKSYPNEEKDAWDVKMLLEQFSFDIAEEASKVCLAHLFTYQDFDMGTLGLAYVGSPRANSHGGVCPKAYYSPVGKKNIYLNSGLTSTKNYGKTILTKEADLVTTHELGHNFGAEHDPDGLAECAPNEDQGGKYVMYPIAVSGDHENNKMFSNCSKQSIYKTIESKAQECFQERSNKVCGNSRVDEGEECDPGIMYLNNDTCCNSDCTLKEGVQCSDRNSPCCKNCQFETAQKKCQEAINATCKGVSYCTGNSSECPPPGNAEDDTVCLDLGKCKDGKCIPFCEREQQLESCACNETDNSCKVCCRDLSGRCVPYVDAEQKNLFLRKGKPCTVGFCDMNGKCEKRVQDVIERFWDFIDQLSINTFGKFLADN
Experimental for human MMP14: The basis for the assay is the cleavage of the substrate 390 MMP FRET Substrate I (Anaspec Cat #AS-27076) by human MMP14 (Biomol, Cat #SE-259).
The reaction is initiated by adding to the assay plate 390 MMP FRET Substrate I (10 μL, 2.5 μM) in the same buffer.
Finally, the fluorescence is read on the Envision (Perkin Elmer) after an incubation of 60 min at room temperature (Excitation 485 nm, Emission 530).
Experimental for human TACE: Finally, the fluorescence is read on the Envision (Perkin Elmer) after an incubation of 75 min at room temperature (Excitation 485 nm, Emission 530).

Turning to `COc1cc(N2CCN(C(=O)CCC3(C)NC(=O)NC3=O)CC2)cc(F)c1F` (stereo not drawn) [Cpd 14, 5-[3-[4-(3,4-difluoro-5-methoxy-phenyl)piperazin-1-yl]-3-oxo-propyl]-5-methyl-imidazolidine-2,4-dione], the IC50 was above 100 nM at human ADAMTS4 [1] (setting [7]); 25 to 50 nM on human ADAMTS6; above 100 nM at human MMP13 [2]; above 100 nM at human ADAMTS-5 [3]; above 100 nM against human TACE; above 100 nM on human ADAMTS-5 [4]. In addition, the concentration for half-maximal inhibition (IC50) at rnADAMTS-5 (1-564-6H) was above 100 nM.

For the compound `CC1(CCC(=O)N2CCN(c3ccc(OC(F)(F)F)cc3)CC2)NC(=O)NC1=O` (stereo not drawn) [Cpd 3, 5-methyl-5-[3-oxo-3-[4-[4-(trifluoromethoxy)phenyl]piperazin-1-yl]propyl]imidazolidine-2,4-dione], the IC50 at human ADAMTS4 [1] (setting [7]), on human ADAMTS6, on human MMP13 [2], at human TACE and on human ADAMTS-5 [4] was above 100 nM in each case.

Turning to `COc1cc(N2CCN(C(=O)CCC3(C4CC4)NC(=O)NC3=O)CC2)ccc1F` (stereo not drawn) [Cpd 17, 5-cyclopropyl-5-[3-[4-(4-fluoro-3-methoxy-phenyl)piperazin-1-yl]-3-oxo-propyl]imidazolidine-2,4-dione], the half-inhibitory concentration (IC50) on human ADAMTS4 [1] (setting [7]), on human ADAMTS6, on human MMP13 [2], at human ADAMTS-5 [3], against human TACE and on human ADAMTS-5 [4] was above 100 nM throughout. Also, the IC50 at rnADAMTS-5 (1-564-6H) was above 100 nM.

Consider `COc1cc(N2CCN(C(=O)CCC3(C4CC4)NC(=O)NC3=O)CC2)cc(F)c1F` (stereo not drawn) [Cpd 18, 5-cyclopropyl-5-[3-[4-(3,4-difluoro-5-methoxy-phenyl)piperazin-1-yl]-3-oxo-propyl]imidazolidine-2,4-dione], for which the half-inhibitory concentration (IC50) is above 100 nM on human MMP13 [5]; above 100 nM at human ADAMTS4 [1] (setting [7]); 0.001 to 25 nM on human ADAMTS6; above 100 nM at human MMP13 [2]; 50 to 100 nM at human ADAMTS-5 [3]; above 100 nM against human TACE. Besides, the 50% inhibitory concentration (IC50) at human MMP14 is above 100 nM; at human ADAMTS-5 [4], 50 to 100 nM; at rnADAMTS-5 (1-564-6H), above 100 nM.

As to `COc1cc(N2CCN(C(=O)CCC3(C)NC(=O)NC3=O)CC2)ccc1Cl` (stereo not drawn) [Cpd 10, 5-[3-[4-(4-chloro-3-methoxy-phenyl)piperazin-1-yl]-3-oxo-propyl]-5-methyl-imidazolidine-2,4-dione], the IC50 is above 100 nM on human ADAMTS4 [1] (setting [7]); 25 to 50 nM at human ADAMTS6; above 100 nM on human MMP13 [2]; above 100 nM on human ADAMTS-5 [3]; above 100 nM against human TACE; above 100 nM at human ADAMTS-5 [4]. The IC50 on rnADAMTS-5 (1-564-6H) was above 100 nM.

Regarding `COc1cccc(N2CCN(C(=O)CCC3(C)NC(=O)NC3=O)CC2)c1` (stereo not drawn) [Cpd 1, 5-[3-[4-(3-methoxyphenyl)piperazin-1-yl]-3-oxo-propyl]-5-methyl-imidazolidine-2,4-dione], the half-inhibitory concentration (IC50) at human ADAMTS6, on human TACE, on human ADAMTS-5 [4] and on human ADAMTS4 [6] was above 100 nM each time.

For `COc1cc(F)cc(N2CCN(C(=O)CCC3(C4CC4)NC(=O)NC3=O)CC2)c1` (stereo not drawn) [Cpd 15, 5-cyclopropyl-5-[3-[4-(3-fluoro-5-methoxy-phenyl)piperazin-1-yl]-3-oxo-propyl]imidazolidine-2,4-dione], the IC50 against human ADAMTS4 [1] was 50 to 100 nM; at human ADAMTS6 it was above 100 nM; on human MMP13 [2], above 100 nM; on human ADAMTS-5 [3], 50 to 100 nM; on human TACE, above 100 nM; on human ADAMTS-5 [4] it was 50 to 100 nM. Besides, the half-inhibitory concentration (IC50) at rnADAMTS-5 (1-564-6H) is 50 to 100 nM.

For the compound `COc1ccc(N2CCN(C(=O)CCC3(C)NC(=O)NC3=O)CC2)cc1` (stereo not drawn) [Cpd 5, 5-[3-[4-(4-methoxyphenyl)piperazin-1-yl]-3-oxo-propyl]-5-methyl-imidazolidine-2,4-dione], the 50% inhibitory concentration (IC50) at human ADAMTS6 and at human ADAMTS-5 [4] was above 100 nM in each case.

Regarding `COc1cccc(N2CCN(C(=O)CCC3(c4cccnc4)NC(=O)NC3=O)CC2)c1` (stereo not drawn) [Cpd 6, 5-[3-[4-(3-methoxyphenyl)piperazin-1-yl]-3-oxo-propyl]-5-(3-pyridyl)imidazolidine-2,4-dione], the IC50 on human ADAMTS6, at human MMP13 [2], against human TACE, at human ADAMTS-5 [4] and on rnADAMTS-5 (1-564-6H) was above 100 nM each time.

For the compound `COc1cc(N2CCN(C(=O)CCC3(C)NC(=O)NC3=O)C[C@@H]2C)cc(Cl)c1F` (stereo partly drawn) [Cpd 53, 5-[3-[(3 S)-4-(3-chloro-4-fluoro-5-methoxy-phenyl)-3-methyl-piperazin-1l-yl]-3-oxo-propyl]-5-methyl-imidazolidine-2,4-dione], the IC50 is above 100 nM at human MMP13 [5]; above 100 nM on human ADAMTS4 [1] (setting [7]); 0.001 to 25 nM at human ADAMTS6; above 100 nM on human MMP13 [2]; 50 to 100 nM at human ADAMTS-5 [3]; above 100 nM on human TACE. Besides, the half-maximal inhibitory concentration (IC50) on human MMP14 and on rnADAMTS-5 (1-564-6H) was above 100 nM each time.

With `COc1cc(Cl)cc(N2CCN(C(=O)CCC3(C)NC(=O)NC3=O)CC2)c1` (stereo not drawn) [Cpd 13, 5-[3-[4-(3-chloro-5-methoxy-phenyl)piperazin-1-yl]-3-oxo-propyl]-5-methyl-imidazolidine-2,4-dione], the IC50 was 25 to 50 nM on human ADAMTS6; above 100 nM on human MMP13 [2]; above 100 nM on human TACE; above 100 nM on human ADAMTS-5 [4]; above 100 nM on rnADAMTS-5 (1-564-6H).

As for `COc1cc(N2CCN(C(=O)CCC3(C)NC(=O)NC3=O)CC2)ccc1F` (stereo not drawn) [Cpd 9, 5-[3-[4-(4-fluoro-3-methoxy-phenyl)piperazin-1-yl]-3-oxo-propyl]-5-methyl-imidazolidine-2,4-dione], the IC50 on human ADAMTS6 is 50 to 100 nM; at human MMP13 [2], above 100 nM; on human ADAMTS-5 [3] it was above 100 nM; at human TACE, above 100 nM; on human ADAMTS-5 [4], above 100 nM; at rnADAMTS-5 (1-564-6H) it was above 100 nM.

For `COc1cccc(N2CCN(C(=O)CCC3(c4ccccn4)NC(=O)NC3=O)CC2)c1` (stereo not drawn) [Cpd 8, 5-[3-[4-(3-methoxyphenyl)piperazin-1-yl]-3-oxo-propyl]-5-(2-pyridyl)imidazolidine-2,4-dione], the half-maximal inhibitory concentration (IC50) was 50 to 100 nM on human ADAMTS4 [1]; above 100 nM at human ADAMTS6; above 100 nM on human MMP13 [2]; above 100 nM against human TACE; above 100 nM on human ADAMTS-5 [4]; above 100 nM at rnADAMTS-5 (1-564-6H).

Turning to `CC1(CCC(=O)N2CCN(c3ccccc3OC(F)(F)F)CC2)NC(=O)NC1=O` (stereo not drawn) [Cpd 4, 5-methyl-5-[3-oxo-3-[4-[2-(trifluoromethoxy)phenyl]piperazin-1-yl]propyl]imidazolidine-2,4-dione], the IC50 on human ADAMTS6, on human ADAMTS-5 [3] and on human ADAMTS-5 [4] was above 100 nM in each case.

As to `COc1cccc(N2CCN(C(=O)CCC3(C4CC4)NC(=O)NC3=O)CC2)c1` (stereo not drawn) [Cpd 2, 5-cyclopropyl-5-[3-[4-(3-methoxyphenyl)piperazin-1-yl]-3-oxo-propyl]imidazolidine-2,4-dione], the half-inhibitory concentration (IC50) at human ADAMTS6 was above 100 nM; against human TACE, above 100 nM; at human ADAMTS-5 [4], above 100 nM; at rnADAMTS-5 (1-564-6H) it was above 100 nM; at human ADAMTS4 [6] it was 25 to 50 nM.

For the compound `COc1cc(OC)cc(N2CCN(C(=O)CCC3(C)NC(=O)NC3=O)CC2)c1` (stereo not drawn) [Cpd 11, 5-[3-[4-(3,5-dimethoxyphenyl)piperazin-1-yl]-3-oxo-propyl]-5-methyl-imidazolidine-2,4-dione], the IC50 at human ADAMTS4 [1] (setting [7]), at human ADAMTS6, at human MMP13 [2], on human TACE, on human ADAMTS-5 [4] and at rnADAMTS-5 (1-564-6H) was above 100 nM each time.

On to `COc1cc(F)cc(N2CCN(C(=O)CCC3(C)NC(=O)NC3=O)CC2)c1` (stereo not drawn) [Cpd 12, 5-[3-[4-(3-fluoro-5-methoxy-phenyl)piperazin-1-yl]-3-oxo-propyl]-5-methyl-imidazolidine-2,4-dione], for which the half-maximal inhibitory concentration (IC50) at human ADAMTS6, on human MMP13 [2], against human TACE, on human ADAMTS-5 [4] and at rnADAMTS-5 (1-564-6H) was above 100 nM throughout.

Regarding `COc1ccccc1N1CCN(C(=O)CCC2(C)NC(=O)NC2=O)CC1` (stereo not drawn) [Cpd 7, 5-[3-[4-(2-methoxyphenyl)piperazin-1-yl]-3-oxo-propyl]-5-methyl-imidazolidine-2,4-dione], the IC50 at human ADAMTS6, on human ADAMTS-5 [3] and at human ADAMTS-5 [4] was above 100 nM in each case.

As for `CCOc1cccc(N2CCN(C(=O)CCC3(C)NC(=O)NC3=O)CC2)c1` (stereo not drawn) [Cpd 16, 5-[3-[4-(3-ethoxyphenyl)piperazin-1l-yl]-3-oxo-propyl]-5-methyl-imidazolidine-2,4-dione], the IC50 at human ADAMTS6 and on human ADAMTS-5 [4] was above 100 nM each time.
